Values of other authors as cited in patent US20070141027A1, “Non-lethal conditioning methods for conditioning a recipient for bone marrow transplantation” (UNIVERSITY OF LOUISVILLE RESEARCH FOUNDATION INC., priority 2003, published 2007).

Test system: mice
Details: reduced from 700 cGy TBI alone; CyP 200 mg/kg i.p. 2 days after BMT; ALG or anti-CD8 on day -3 added to it

In the case of O=P1(N(CCCl)CCCl)NCCCO1 (stereo not shown) [cyclophosphamide (CyP), cyclophosphamide], the “TBI dose for allogeneic marrow engraftment” value is given as 500 cGy.
